Assay results: patent US11033535B2, “Oxadiazoles and thiadiazoles as TGF-β inhibitors” (Southern Research Institute, priority 2017, dated 2021)
Where a name gives a salt, the structure may show the parent alone.

What was measured:
[1] = molecular target: (Homo sapiens, UniProt P07996); test: Secondary Assay, inhibitory activity of thiadiazole and oxadiazole analogs as TGF-beta inhibitors; type: biochemical
Protocol: A summary of the inhibitory activity of representative thiadiazole analogs (Tables i and ii) and oxadiazole analogs (Table ii) is shown below.
(§1) For initial screening, an ELISA-based screening assay was used in which purified human platelet TSP-1 was incubated with compounds and then incubated with recombinant latent TGF-β1 (purchased from R&D Systems). Activity is measured in a commercially available ELISA which detects only active TGF-β (R &D Systems). Activity in the presence of compounds is compared to activity in TSP-1+latent TGF-β samples without inhibitory compounds (Lu et al. (2016) Am J Pathol 186:678-690).
To specifically assess activity of compounds in liver cell specific assays, two different assays were used. In the first, human hepatic stellate cells were incubated overnight in low serum media to condition the media with secreted latent TGF-β. Purified TSP1 either pre-incubated with compounds or not will be added to cultures and then conditioned media harvested to assess TGF-β biological activity using the R&D Systems ELISA as above. Hepatic stellate cells will be purchased from commercial sources. Although hepatic stellate cells are the primary drivers of liver fibrosis, conditions which drive liver fibrosis can induce hepatocyte TSP-1 expression which can then have paracrine effects on controlling TGF-β activation in hepatic stellate cells. Furthermore, TGF-β can negatively impact hepatocyte regeneration following injury. Therefore, the ability of compounds to block TSP-1 activation of latent TGF-β will also be assessed in cultured primary human hepatocytes following the protocol described for the hepatic stellate cells. Similar approaches have successfully been used to screen compounds which inhibit human myeloma cell derived latent TGF-β activation by TSP-1 (Lu et al. (2016) Am J Pathol 186:678-690).
Target sequence in this assay (P07996 whole entry): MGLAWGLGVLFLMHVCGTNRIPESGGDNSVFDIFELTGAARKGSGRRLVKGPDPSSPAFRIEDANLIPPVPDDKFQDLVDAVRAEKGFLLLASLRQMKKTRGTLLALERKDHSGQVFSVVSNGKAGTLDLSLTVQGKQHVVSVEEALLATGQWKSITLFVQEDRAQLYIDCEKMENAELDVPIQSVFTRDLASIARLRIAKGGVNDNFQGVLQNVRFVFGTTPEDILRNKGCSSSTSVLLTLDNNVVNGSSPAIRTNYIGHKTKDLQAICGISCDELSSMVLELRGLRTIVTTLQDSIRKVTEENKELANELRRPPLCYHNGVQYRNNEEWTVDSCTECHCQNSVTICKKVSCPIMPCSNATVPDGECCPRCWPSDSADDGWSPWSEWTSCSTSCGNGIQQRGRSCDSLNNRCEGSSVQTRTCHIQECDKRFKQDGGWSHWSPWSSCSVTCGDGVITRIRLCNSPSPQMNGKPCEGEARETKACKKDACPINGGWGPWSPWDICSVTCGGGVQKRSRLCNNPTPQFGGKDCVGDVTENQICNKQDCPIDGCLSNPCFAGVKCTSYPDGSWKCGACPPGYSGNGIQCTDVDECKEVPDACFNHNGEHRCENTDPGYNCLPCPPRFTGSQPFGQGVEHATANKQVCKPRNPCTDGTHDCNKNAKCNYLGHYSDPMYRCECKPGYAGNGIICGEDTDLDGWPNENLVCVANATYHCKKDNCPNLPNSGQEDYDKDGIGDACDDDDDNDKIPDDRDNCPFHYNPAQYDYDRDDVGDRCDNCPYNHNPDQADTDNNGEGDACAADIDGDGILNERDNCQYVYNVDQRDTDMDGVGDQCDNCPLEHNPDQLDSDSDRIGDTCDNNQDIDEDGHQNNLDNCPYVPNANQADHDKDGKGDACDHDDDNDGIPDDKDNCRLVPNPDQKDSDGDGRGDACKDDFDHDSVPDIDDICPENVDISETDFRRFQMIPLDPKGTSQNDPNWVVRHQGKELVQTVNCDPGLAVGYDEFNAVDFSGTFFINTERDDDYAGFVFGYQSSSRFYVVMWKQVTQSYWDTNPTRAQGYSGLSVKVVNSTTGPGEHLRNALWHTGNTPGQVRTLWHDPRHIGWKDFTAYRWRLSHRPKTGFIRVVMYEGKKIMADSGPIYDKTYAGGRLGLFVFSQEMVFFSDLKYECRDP

[2] = molecular target: (Homo sapiens, UniProt P07996); test: ELISA based assays of TSP1 activation of latent TGF-β (purified protein components or TSP1-treated cell conditioned media); type: biochemical; set-up: purchased R&D Systems
Protocol: Compound 35 was evaluated for its ability to inhibit TGF-β in both ELISA based assays with purified protein components (latent TGFβ and TSP1 or in TSP1-treated cell conditioned media).
as §1
Target sequence in this assay (P07996 19-1170): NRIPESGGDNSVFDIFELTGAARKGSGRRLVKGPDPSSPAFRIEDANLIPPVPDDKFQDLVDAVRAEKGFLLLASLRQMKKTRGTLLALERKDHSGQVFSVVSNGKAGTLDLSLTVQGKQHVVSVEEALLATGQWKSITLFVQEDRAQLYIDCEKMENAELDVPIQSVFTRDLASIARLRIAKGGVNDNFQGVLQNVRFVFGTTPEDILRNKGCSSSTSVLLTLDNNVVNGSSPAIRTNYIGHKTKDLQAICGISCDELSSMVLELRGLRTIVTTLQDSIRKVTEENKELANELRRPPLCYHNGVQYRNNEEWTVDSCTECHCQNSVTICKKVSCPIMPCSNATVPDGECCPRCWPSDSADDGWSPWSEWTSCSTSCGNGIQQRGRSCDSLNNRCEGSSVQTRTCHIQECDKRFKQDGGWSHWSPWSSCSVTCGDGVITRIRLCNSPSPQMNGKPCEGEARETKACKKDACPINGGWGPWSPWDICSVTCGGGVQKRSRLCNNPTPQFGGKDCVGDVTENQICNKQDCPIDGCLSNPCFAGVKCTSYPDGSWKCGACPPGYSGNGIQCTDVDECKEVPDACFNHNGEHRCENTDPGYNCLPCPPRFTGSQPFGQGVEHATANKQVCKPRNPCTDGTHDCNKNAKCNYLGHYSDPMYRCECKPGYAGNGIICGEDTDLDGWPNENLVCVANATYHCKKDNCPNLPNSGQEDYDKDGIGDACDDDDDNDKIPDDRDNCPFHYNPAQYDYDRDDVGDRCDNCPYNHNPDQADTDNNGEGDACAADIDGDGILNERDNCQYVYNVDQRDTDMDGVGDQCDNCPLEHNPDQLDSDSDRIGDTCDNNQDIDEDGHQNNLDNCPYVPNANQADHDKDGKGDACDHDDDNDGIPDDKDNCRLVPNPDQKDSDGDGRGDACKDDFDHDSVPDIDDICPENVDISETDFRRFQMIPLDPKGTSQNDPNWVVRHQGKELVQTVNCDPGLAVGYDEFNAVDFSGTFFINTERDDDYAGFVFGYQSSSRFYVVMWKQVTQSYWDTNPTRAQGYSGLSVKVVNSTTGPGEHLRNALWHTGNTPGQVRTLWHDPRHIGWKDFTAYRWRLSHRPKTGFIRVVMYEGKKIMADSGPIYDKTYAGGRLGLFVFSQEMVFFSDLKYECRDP

IC50 ([1]; Table I) [µM]	SMILES	also measured
0.061	CC(=O)NC(Cc1ccc(CN)cc1)c1nnc(-c2cccc(OC(F)(F)F)c2)s1 (racemic) [Compound 41791]	
0.033	CC(=O)NC(Cc1ccc(CN)cc1)c1nnc(-c2ccncc2)s1 (centres unmarked) [Compound 39245, N-(2-(4-(aminomethyl)phenyl)-1-(5-(pyridin-4-yl)-1,3,4-thiadiazol-2-yl)ethyl)acetamide]	
0.039	CC(=O)NC(Cc1ccc(CN)cc1)c1nnc(-c2cc(C(F)(F)F)cc(C(F)(F)F)c2)s1 (centres unmarked) [Compound 40653, N-(2-(4-(aminomethyl)phenyl)-1-(5-(3,5-bis(trifluoromethyl)phenyl)-1,3,4-thiadiazol-2-yl)ethyl)acetamide]	
0.183	COc1cccc(-c2nnc(C(Cc3ccc(CN)cc3)NC(C)=O)s2)c1 (centres unmarked) [Compound 41149, N-(2-(4-(aminomethyl)phenyl)-1-(5-(3-methoxyphenyl)-1,3,4-thiadiazol-2-yl)ethyl)acetamide hydrochloride]	
0.009	CC(=O)NC(Cc1ccc(CN)cc1)c1nnc(-c2cccc(C(F)(F)F)c2)s1 (centres unmarked) [Compound 41152, N-(2-(4-(aminomethyl)phenyl)-1-(5-(3-(trifluoromethyl)phenyl)-1,3,4-thiadiazol-2-yl)ethyl)acetamide hydrochloride]	
0.006	COc1cc(-c2nnc(C(Cc3ccc(CN)cc3)NC(C)=O)s2)cc(C(F)(F)F)c1 (centres unmarked) [Compound 42330, N-(2-(4-(aminomethyl)phenyl)-1-(5-(3-methoxy-5-(trifluoromethyl)phenyl)-1,3,4-thiadiazol-2-yl)ethyl)acetamide]	
0.03	CC(=O)N(C)C(Cc1ccc(CN)cc1)c1nnc(-c2cccc(OC(F)(F)F)c2)s1 (centres unmarked) [Compound 42335, N-(2-(4-(aminomethyl)phenyl)-1-(5-(3-(trifluoromethoxy)phenyl)-1,3,4-thiadiazol-2-yl)ethyl)-N-methylacetamide Hydrochloride]	
0.005	NCc1cccc(CC(NC(=O)C2CCCCC2)c2nnc(-c3cccc(OC(F)(F)F)c3)s2)c1 (centres unmarked) [Compound 42461, N-(2-(3-(aminomethyl)phenyl)-1-(5-(3-(trifluoromethoxy)phenyl)-1,3,4-thiadiazol-2-yl)ethyl)cyclohexanecarboxamide]	
0.008	CC(=O)NC(Cc1ccc(CN)cc1)c1nnc(-c2cc(C)cc(OC(F)(F)F)c2)s1 (centres unmarked) [Compound 42470]	

Second part, the compound before the results:

SMILES	IC50 ([1]; Table I) [µM]	also measured
CC(=O)N[C@@H](Cc1ccc(CN)cc1)c1nnc(-c2cccc(OC(F)(F)F)c2)s1 (single isomer, unassigned) [Compound 41891]	0.026	
CC(=O)N[C@H](Cc1ccc(CN)cc1)c1nnc(-c2cccc(OC(F)(F)F)c2)s1 (single isomer, unassigned) [Compound 41892]	0.0269	
CC(=O)N[C@@H](CCCCN)c1nnc(-c2ccccc2)s1 [Compound 35, (S)—N-(5-amino-1-(5-phenyl-1,3,4-thiadiazol-2-yl)pentyl)acetamide]		inhibition of TGF-β ([2]; at 1 pm): 15%; inhibition of TGF-β ([2]; at 50 pm): 67%; inhibition of TGF-β ([2]; at 100 pm): 67%
CC(=O)NC(CCCCN)c1nnc(C2CCCCC2)s1 (centres unmarked) [Compound 39139, N-(5-Amino-1-(5-cyclohexyl-1,3,4-thiadiazol-2-yl)pentyl)acetamide]		IC50 ([1]; Table II): 0.013 µM
CC(=O)NC(CCCCN)c1nnc(-c2ccc(F)cc2)s1 (centres unmarked) [Compound 39261, N-(5-Amino-1-(5-(4-fluorophenyl)-1,3,4-thiadiazol-2-yl)pentyl)acetamide]		IC50 ([1]; Table II): 0.324 µM
CC(=O)NC(CCCCN)c1nnc(-c2ccc(F)cc2F)s1 (centres unmarked) [Compound 39425, N-(5-Amino-1-(5-(2,4-difluorophenyl)-1,3,4-thiadiazol-2-yl)pentyl)acetamide]		IC50 ([1]; Table II, cells that print μM): > 1 µM
CC(=O)NC(Cc1ccc(N)cc1)c1nnc(-c2cccc(OC(F)(F)F)c2)s1 (centres unmarked) [Compound 39999, N-(2-(4-aminophenyl)-1-(5-(3-(trifluoromethoxy)phenyl)-1,3,4-thiadiazol-2-yl)ethyl)acetamide]	0.015	
CC(=O)NC(Cc1ccc(CN)cc1)c1nnc(-c2cccc(OC(F)(F)F)c2)s1 (centres unmarked) [Compound 40000, N-(2-(4-(aminomethyl)phenyl)-1-(5-(3-(trifluoromethoxy)phenyl)-1,3,4-thiadiazol-2-yl)ethyl)acetamide]	0.028	
CC(=O)NC(Cc1ccc(CN)cc1)c1nnc(-c2ccc(F)cc2)s1 (centres unmarked) [Compound 40051, N-(2-(4-(aminomethyl)phenyl)-1-(5-(4-fluorophenyl)-1,3,4-thiadiazol-2-yl)ethyl)acetamide]	0.049	
CC(=O)NC(CCCCN)c1nnc(-c2ccncc2)o1 (centres unmarked) [Compound 40074, N-(5-Amino-1-(5-(pyridin-4-yl)-1,3,4-oxadiazol-2-yl)pentyl)acetamide]		IC50 ([1]; Table II, cells that print μM): > 1 µM
NCc1cccc(CC(NC(=O)C2CC2)c2nnc(-c3cccc(OC(F)(F)F)c3)s2)c1 (centres unmarked) [Compound 42468, N-(2-(3-(aminomethyl)phenyl)-1-(5-(3-(trifluoromethoxy)phenyl)-1,3,4-thiadiazol-2-yl)ethyl)cyclopropanecarboxamide]	0.008	
COc1cc(C)cc(-c2nnc(C(Cc3ccc(CN)cc3)NC(C)=O)s2)c1 (centres unmarked) [Compound 42473]	0.008	
